Test results published in patent US8816090B2, “Benzisoxazole derivatives” (Pfizer Inc., priority 2005, dated 2014).
Where a name gives a salt, the structure may show the parent alone.

Columns and labels:
Human 5-HT4(d) = target: T1, Human 5-HT4(d) (Homo sapiens, UniProt Q13639); test: Agonist-induced cAMP elevation in human 5-HT4(d) transfected HEK293 cells; assay type: cell-based; conditions: for Emax: HEK293, cAMP production normalized to the amount produced by 1,000 nM serotonin; for EC50: cAMP elevation (HTRF), human 5-HT4(d) transfected HEK293 cells
T1 construct: expressed in transfected cells
Method: Human 5-HT4(d) transfected HEK293 cells were established in-house. The cells were grown at 37° C. and 5% CO2 in DMEM supplemented with 10% FCS, 20 mM HEPES (pH 7.4), 200 μg/ml hygromycin B (Gibco), 100 units/ml penicillin and 100 μg/ml streptomycin.
The cells were grown to 60-80% confluence. On the previous day before treatment with compounds dialyzed FCS (Gibco) was substituted for normal and the cells were incubated overnight.
Compounds were prepared in 96-well plates (12.5 μl/well). The cells were harvested with PBS/1 mM EDTA, centrifuged and washed with PBS. At the beginning of the assay, cell pellet was resuspended in DMEM supplemented with 20 mM HEPES, 10 μM pargyline (Sigma) and 1 mM 3-isobutyl-1-methylxanthine (Sigma) at the concentration of 1.6×10^5 cells/ml and left for 15 min at room temperature. The reaction was initiated by addition of the cells into plates (12.5 μl/well). After incubation for 15 min at room temperature, 1% Triton X-100 was added to stop the reaction (25 μl/well) and the plates were left for 30 minutes at room temperature. Homogenous time-resolved fluorescence-based cAMP (Schering) detection was made according to the manufacturer's instruction. ARVOsx multilabel counter (Wallac) was used to measure HTRF (excitation 320 nm, emission 665 nm/620 nm, delay time 50 μs, window time 400 μs).
Data was analyzed based on the ratio of fluorescence intensity of each well at 620 nm and 665 nm followed by cAMP quantification using cAMP standard curve. Enhancement of cAMP production elicited by each compound was normalized to the amount of cAMP produced by 1,000 nM serotonin (Sigma).

T1 sequence (Q13639 1-360 isoform Q13639-3): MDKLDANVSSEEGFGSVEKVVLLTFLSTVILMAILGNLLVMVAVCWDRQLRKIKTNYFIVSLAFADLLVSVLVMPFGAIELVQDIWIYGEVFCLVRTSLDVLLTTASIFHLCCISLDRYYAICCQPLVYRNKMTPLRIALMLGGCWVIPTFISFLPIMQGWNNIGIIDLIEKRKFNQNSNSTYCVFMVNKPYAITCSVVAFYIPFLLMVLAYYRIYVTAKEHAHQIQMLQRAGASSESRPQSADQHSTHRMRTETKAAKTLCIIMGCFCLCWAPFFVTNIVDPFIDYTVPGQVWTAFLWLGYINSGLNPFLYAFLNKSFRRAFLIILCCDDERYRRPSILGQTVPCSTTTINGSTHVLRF

SMILES: CC(C)COc1cccc2onc(OCCC3CCN(CC4(C(=O)O)CCOCC4)CC3)c12 [Example 15, 4-[(4-{2-[(4-isobutoxy-1,2-benzisoxazol-3-yl)oxy]ethyl}piperidin-1-yl)methyl]tetrahydro-2H-pyran-4-carboxylic acid]
- Emax (Human 5-HT4(d)): 32%
- EC50 (Human 5-HT4(d)): 39 nM
- melting point: 117.8 °C

SMILES: O[C@H]1CC[C@H](Oc2cccc3onc(OCC4CCN(CC5(O)CCOCC5)CC4)c23)C1 (relative stereo) [Example 39, 4-({4-[({4-[(trans-3-Hydroxycyclopentyl)oxy]-1,2-benzisoxazol-3-yl}oxy)methyl]piperidin-1-yl}methyl)tetrahydro-2H-pyran-4-ol]
- Emax (Human 5-HT4(d)): 56%
- EC50 (Human 5-HT4(d)): 1.3 nM

SMILES: O=C(O)C1(CN2CCC(CCOc3noc4cccc(OCC(F)(F)F)c34)CC2)CCOCC1 [Example 7, 4-{[4-(2-{[4-(2,2,2-Trifluoroethoxy)-1,2-benzisoxazol-3-yl]oxy}ethyl)piperidin-1-yl]methyl}tetrahydro-2H-pyran-4-carboxylic acid]
- Emax (Human 5-HT4(d)): 35%
- EC50 (Human 5-HT4(d)): 48 nM
- melting point: 176.6 °C

SMILES: O=C(O)C1(CCN2CCC(COc3noc4cccc(OC5CCCC5)c34)CC2)CCOCC1 [Example 25, 4-{2-[4-({[4-(Cyclopentyloxy)-1,2-benzisoxazol-3-yl]oxy}methyl)piperidin-1-yl]ethyl}tetrahydro-2H-Pyran-4-carboxylic acid]
- Emax (Human 5-HT4(d)): 41%
- EC50 (Human 5-HT4(d)): 3 nM

SMILES: O=C(O)C1(CN2CCC(COc3noc4cccc(OCC5CCC5)c34)CC2)CCOCC1 [Example 18, 4-{[4-({[4-(Cyclobutylmethoxy)-1,2-benzisoxazol-3-yl]oxy}methyl)piperidin-1-yl]methyl}tetrahydro-2H-pyran-4-carboxylic acid]
- Emax (Human 5-HT4(d)): 52%
- EC50 (Human 5-HT4(d)): 2 nM
- melting point: 175.5 °C

SMILES: O=C(O)C1(CN2CCC(COc3noc4cccc(OC5CCOCC5)c34)CC2)CCOCC1 [Example 27, 4-{[4-({[4-(Tetrahydro-2H-pyran-4-yloxy)-1,2-benzisoxazol-3-yl]oxy}methyl)piperidin-1-yl]methyl}-tetrahydro-2H-pyran-4-carboxylic acid]
- Emax (Human 5-HT4(d)): 71%
- EC50 (Human 5-HT4(d)): 11 nM

SMILES: O=C(O)[C@H]1CC[C@H](CN2CCC(COc3noc4cccc(O[C@H]5CC[C@@H](CO)CC5)c34)CC2)CC1 [Example 47, trans-4-[(4-{[(4-{[cis-4-(Hydroxymethyl)cyclohexyl]oxy}-1,2-benzisoxazol-3-yl)oxy]methyl}-Piperidin-1-yl)methyl]cyclohexanecarboxylic acid]
- Emax (Human 5-HT4(d)): 71%
- EC50 (Human 5-HT4(d)): 5.3 nM

SMILES: CC(C)COc1cccc2onc(OCC3CCN(CC4(C(=O)O)CCOCC4)CC3)c12 [Example 10, 4-[(4-{[(4-Isobutoxy-1,2-benzisoxazol-3-yl)oxy]methyl}piperidin-1-yl)methyl]tetrahydro-2H-pyran-4-carboxylic acid]
- Emax (Human 5-HT4(d)): 45%
- EC50 (Human 5-HT4(d)): 3.1 nM
- melting point: 153.4 °C

SMILES: O=C(O)[C@H]1CC[C@H](CN2CCC(COc3noc4cccc(O[C@H]5CC[C@@H](O)CC5)c34)CC2)CC1 [Example 44, trans-4-({4-[({4-[(cis-4-Hydroxycyclohexyl)oxy]-1,2-benzisoxazol-3-yl}oxy)methyl]piperidin-1-yl}-methyl)cyclohexanecarboxylic acid]
- Emax (Human 5-HT4(d)): 55%
- EC50 (Human 5-HT4(d)): 2.4 nM
- melting point: 182.7 °C

SMILES: O=C(O)C1(CN2CCC(COc3noc4cccc(OCC5(CO)CCCC5)c34)CC2)CCC1 [Example 52, 1-[(4-{[(4-{[1-(Hydroxymethyl)cyclopentyl]methoxy}-1,2-benzisoxazol-3-yl)oxy]methyl}piperidin-1-yl)methyl]cyclobutanecarboxylic acid]
- Emax (Human 5-HT4(d)): 41%
- EC50 (Human 5-HT4(d)): 30 nM

SMILES: O=C(O)C1(CN2CCC(COc3noc4cccc(OC5CCOCC5)c34)CC2)CCCCC1 [Example 30, 1-{[4-({[4-(Tetrahydro-2H-pyran-4-yloxy)-1,2-benzisoxazol-3-yl]oxy}methyl)piperidin-1-yl]methyl}-cyclohexanecarboxylic acid]
- Emax (Human 5-HT4(d)): 88%
- EC50 (Human 5-HT4(d)): 19 nM
- melting point: 157.1 °C

SMILES: CC(C)COc1cccc2onc(OCC3CCN(CC(C)(C)C(=O)O)CC3)c12 [Example 11, 3-(4-{[(4-Isobutoxy-1,2-benzisoxazol-3-yl)oxy]methyl}piperidin-1-yl)-2,2-dimethylpropanoic acid]
- Emax (Human 5-HT4(d)): 29%
- EC50 (Human 5-HT4(d)): 1.4 nM
- melting point: 123.7 °C

SMILES: O=C(O)C1(CN2CCC(COc3noc4cccc(O[C@H]5CCC[C@@H]5O)c34)CC2)CCC1 (relative stereo) [Example 34, 1-({4-[({4-[(trans-2-Hydroxycyclopentyl)oxy]-1,2-benzisoxazol-3-yl}oxy)methyl]piperidin-1-yl}-methyl)cyclobutanecarboxylic acid]
- Emax (Human 5-HT4(d)): 46%
- EC50 (Human 5-HT4(d)): 2.7 nM

SMILES: OC1(CN2CCC(COc3noc4cccc(O[C@H]5CC[C@H](O)CC5)c34)CC2)CCOCC1 [Example 41, 4-({4-[({4-[(trans-4-Hydroxycyclohexyl)oxy]-1,2-benzisoxazol-3-yl}oxy)methyl]piperidin-1-yl}-methyl)tetrahydro-2H-pyran-4-ol]
- Emax (Human 5-HT4(d)): 44%
- EC50 (Human 5-HT4(d)): 3 nM

SMILES: O=C(O)C1(CN2CCC(COc3noc4cccc(OCC(F)(F)F)c34)CC2)CCOCC1 [Example 1, 4-{[4-({[4-(2,2,2-Trifluoroethoxy)-1,2-benzisoxazol-3-yl]oxy}methyl)piperidin-1-yl]methyl}tetrahydro-2H-pyran-4-carboxylic acid]
- Emax (Human 5-HT4(d)): 69%
- EC50 (Human 5-HT4(d)): 1.5 nM

SMILES: O=C(O)C1(CN2CCC(COc3noc4cccc(OCC5(CO)CCC5)c34)CC2)CCOCC1 [Example 49, 4-[(4-{[(4-{[1-(Hydroxymethyl)cyclobutyl]methoxy}-1,2-benzisoxazol-3-VI)oxy]methyl}piperidin-1-yl)methyl]tetrahydro-2H-pyran-4-carboxylic acid]
- Emax (Human 5-HT4(d)): 40%
- EC50 (Human 5-HT4(d)): 65 nM

SMILES: CO[C@H]1CCC[C@@H]1Oc1cccc2onc(OCC3CCN(CC4(O)CCOCC4)CC3)c12 (relative stereo) [Example 35, 4-({4-[({4-[(trans-2-Methoxycyclopentyl)oxy]-1,2-benzisoxazol-3-yl}oxy)methyl]piperidin-1-yl}-methyl)tetrahydro-2H-pyran-4-ol and its 4-methylbenzenesulfonate]
- Emax (Human 5-HT4(d)): 56%
- EC50 (Human 5-HT4(d)): 1.4 nM

SMILES: O=C(O)C1(CN2CCC(COc3noc4cccc(OCC5(CO)CCCC5)c34)CC2)CCOCC1 [Example 51, 4-[(4-{[(4-{[1-(Hydroxymethyl)cyclopentyl]methoxy}-1,2-benzisoxazole-3-yl)oxy]methyl}piperidin-1-yl)methyl]tetrahydro-2H-pyran-4-carboxylic acid]
- Emax (Human 5-HT4(d)): 33%
- EC50 (Human 5-HT4(d)): 27 nM

SMILES: CO[C@@H]1CCC[C@@H]1Oc1cccc2onc(OCC3CCN(CC4(O)CCOCC4)CC3)c12 (relative stereo) [Example 37, 4-({4-[({4-[(cis-2-Methoxycyclopentyl)oxy]-1,2-benzisoxazol-3-yl}oxy)methyl]piperidin-1-yl}methyl)-tetrahydro-2H-pyran-4-ol and its oxalate salt]
- Emax (Human 5-HT4(d)): 50%
- EC50 (Human 5-HT4(d)): 8.8 nM

SMILES: CC(C)COc1cccc2onc(OCC3CCN(CC4(O)CCOCC4)CC3)c12 [Example 8, 1-[(4-Hydroxytetrahydro-2H-pyran-4-yl)methyl]-4-{[(4-isobutoxy-1,2-benzisoxazol-3-yl)oxy]methyl}-piperidinium and its p-toluenesulfonate salt]
- Emax (Human 5-HT4(d)): 39%
- EC50 (Human 5-HT4(d)): 2.6 nM

SMILES: O[C@H]1CCC[C@@H]1Oc1cccc2onc(OCC3CCN(CC4(O)CCOCC4)CC3)c12 (relative stereo) [Example 32, 4-({4-[({4-[(trans-2-Hydroxycyclopentyl)oxy]-1,2-benzisoxazol-3-yl}oxy)methyl]piperidin-1-yl}-methyl)tetrahydro-2H-pyran-4-ol]
- Emax (Human 5-HT4(d)): 40%
- EC50 (Human 5-HT4(d)): 1.6 nM

SMILES: O=C(O)C1(CN2CCC(COc3noc4cccc(O[C@H]5CC[C@@H](O)CC5)c34)CC2)CCOCC1 [Example 43, 4-({4-[({4-[(cis-4-Hydroxycyclohexyl)oxy]-1,2-benzisoxazol-3-yl}oxy)methyl]piperidin-1-yl}methyl)-tetrahydro-2H-pyran-4-carboxylic acid]
- Emax (Human 5-HT4(d)): 49%
- EC50 (Human 5-HT4(d)): 3.3 nM

SMILES: O=C(O)C1(CN2CCC(COc3noc4cccc(O[C@H]5CC[C@H](O)CC5)c34)CC2)CCOCC1 [Example 42, 4-({4-[({4-[(trans-4-Hydroxycyclohexyl)oxy]-1,2-benzisoxazol-3-yl}oxy)methyl]piperidin-1-yl}-methyl)tetrahydro-2H-pyran-4-carboxylic acid]
- Emax (Human 5-HT4(d)): 67%
- EC50 (Human 5-HT4(d)): 18 nM

SMILES: O=C(O)C1(CN2CCC(COc3noc4cccc(O[C@H]5CCC[C@@H]5O)c34)CC2)CCCC1 (relative stereo) [Example 33, 1-({4-[({4-[(trans-2-Hydroxycyclopentyl)oxy]-1,2-benzisoxazol-3-yl}oxy)methyl]piperidin-1-yl}methyl)cyclopentanecarboxylic acid]
- Emax (Human 5-HT4(d)): 51%
- EC50 (Human 5-HT4(d)): 3.3 nM
